Experimental data from PubChem BioAssay AID1963841 (Molecular Pharmacology Branch, DTP, NCI, 2024).
pIC50: −log10 of the molar value.

Test system: 439559-082-T-J2-PDC spheroid viability
Test: Anticancer human tumor 439559-082-T-J2-PDC patient-derived colon adenocarcinoma cell line growth inhibition [POLQ]
Conditions: spheroids with HUVEC and MSC; for pIC50: curve of first compound; for viability, T/C: stronger effect = lower value
How it was run: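 Complex spheroid viability model combining PDC tumour cells with endothelial (HUVEC) and MSC stromal cells. Novobiocin, ART-558 or RP6685 were tested singly and in combination with standard and investigational anticancer drugs. Each was titrated in half-log steps from near clinical Cmax, or from 10 microM where Cmax was unknown.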

[1] = second compound 0.0316 µM, first compound 0.0316 µM
[2] = second compound 0.0316 µM, first compound 0.1 µM
[3] = second compound 0.0316 µM, first compound 0.316 µM
[4] = second compound 0.0316 µM, first compound 1 µM
[5] = second compound 0.0316 µM, first compound 3.16 µM
[6] = second compound 0.0316 µM, first compound 10 µM
[7] = second compound 0.1 µM, first compound 0.0316 µM
[8] = second compound 0.1 µM, first compound 0.1 µM
[9] = second compound 0.1 µM, first compound 0.316 µM
[10] = second compound 0.1 µM, first compound 1 µM
[11] = second compound 0.1 µM, first compound 3.16 µM
[12] = second compound 0.1 µM, first compound 10 µM
[13] = second compound 0.316 µM, first compound 0.0316 µM
[14] = second compound 0.316 µM, first compound 0.1 µM
[15] = second compound 0.316 µM, first compound 0.316 µM
[16] = second compound 0.316 µM, first compound 1 µM
[17] = second compound 0.316 µM, first compound 3.16 µM
[18] = second compound 0.316 µM, first compound 10 µM
[19] = second compound 1 µM, first compound 0.0316 µM
[20] = second compound 1 µM, first compound 0.1 µM
[21] = second compound 1 µM, first compound 0.316 µM
[22] = second compound 1 µM, first compound 1 µM
[23] = second compound 1 µM, first compound 3.16 µM
[24] = second compound 1 µM, first compound 10 µM
[25] = second compound 3.16 µM, first compound 0.0316 µM
[26] = second compound 3.16 µM, first compound 0.1 µM
[27] = second compound 3.16 µM, first compound 0.316 µM
[28] = second compound 3.16 µM, first compound 1 µM
[29] = second compound 3.16 µM, first compound 3.16 µM
[30] = second compound 3.16 µM, first compound 10 µM
[31] = second compound 10 µM, first compound 0.0316 µM
[32] = second compound 10 µM, first compound 0.1 µM
[33] = second compound 10 µM, first compound 0.316 µM
[34] = second compound 10 µM, first compound 1 µM
[35] = second compound 10 µM, first compound 3.16 µM
[36] = second compound 10 µM, first compound 10 µM
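Further: spheroids exposed to compounds for seven days before readout.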
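Wherever viability, T/C is given: 100% = DMSO vehicle control viability.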

SMILES: COc1cc(C2c3cc4c(cc3C(OC3OC5COC(C)OC5C(O)C3O)C3COC(=O)C23)OCO4)cc(OC)c1O (centres undefined) + Cc1cccc(N(C)C(=O)C2C(O)CCN2c2nc(C)cc(C(F)(F)F)c2C#N)c1
- pIC50 (second compound 0.0316 µM): < 5.00
- pIC50 (second compound 0.1 µM): < 5.00
- pIC50 (second compound 0.316 µM): < 5.00
- pIC50 (second compound 1 µM): < 5.00
- pIC50 (second compound 3.16 µM): < 5.00
- pIC50 (second compound 10 µM): < 5.00
- viability, T/C [1]: 90.7%
- viability, T/C [2]: 99.6%
- viability, T/C [3]: 95.6%
- viability, T/C [4]: 95.3%
- viability, T/C [5]: 76.8%
- viability, T/C [6]: 68.8%
- viability, T/C [7]: 103%
- viability, T/C [8]: 101%
- viability, T/C [9]: 98.1%
- viability, T/C [10]: 89.8%
- viability, T/C [11]: 83.4%
- viability, T/C [12]: 79.1%
- viability, T/C [13]: 96.9%
- viability, T/C [14]: 92.4%
- viability, T/C [15]: 95.2%
- viability, T/C [16]: 88.2%
- viability, T/C [17]: 82.1%
- viability, T/C [18]: 69.1%
- viability, T/C [19]: 108%
- viability, T/C [20]: 90.8%
- viability, T/C [21]: 93.5%
- viability, T/C [22]: 90.4%
- viability, T/C [23]: 84.2%
- viability, T/C [24]: 73.4%
- viability, T/C [25]: 90.9%
- viability, T/C [26]: 102%
- viability, T/C [27]: 90.8%
- viability, T/C [28]: 83.3%
- viability, T/C [29]: 82.1%
- viability, T/C [30]: 70.6%
- viability, T/C [31]: 92.4%
- viability, T/C [32]: 82.5%
- viability, T/C [33]: 95.4%
- viability, T/C [34]: 86.8%
- viability, T/C [35]: 71%
- viability, T/C [36]: 59.9%

SMILES: COc1cccc2c1C(=O)c1c(O)c3c(c(O)c1C2=O)CC(O)(C(=O)CO)CC3OC1CC(N)C(O)C(C)O1 (centres undefined) + Cc1cccc(N(C)C(=O)C2C(O)CCN2c2nc(C)cc(C(F)(F)F)c2C#N)c1
- pIC50 (second compound 0.0316 µM): < 5.00
- pIC50 (second compound 0.1 µM): < 5.00
- pIC50 (second compound 0.316 µM): < 5.00
- pIC50 (second compound 1 µM): 5.04
- pIC50 (second compound 3.16 µM): 5.01
- pIC50 (second compound 10 µM): < 5.00
- viability, T/C [1]: 99%
- viability, T/C [2]: 87.9%
- viability, T/C [3]: 79.6%
- viability, T/C [4]: 70.5%
- viability, T/C [5]: 60.8%
- viability, T/C [6]: 53.2%
- viability, T/C [7]: 96.2%
- viability, T/C [8]: 92.5%
- viability, T/C [9]: 80.7%
- viability, T/C [10]: 70.2%
- viability, T/C [11]: 62.9%
- viability, T/C [12]: 52.8%
- viability, T/C [13]: 95.2%
- viability, T/C [14]: 94.4%
- viability, T/C [15]: 79.4%
- viability, T/C [16]: 68.2%
- viability, T/C [17]: 63%
- viability, T/C [18]: 51.7%
- viability, T/C [19]: 100%
- viability, T/C [20]: 97.9%
- viability, T/C [21]: 79.6%
- viability, T/C [22]: 70.1%
- viability, T/C [23]: 62.8%
- viability, T/C [24]: 48.2%
- viability, T/C [25]: 96.7%
- viability, T/C [26]: 86.1%
- viability, T/C [27]: 81.2%
- viability, T/C [28]: 70%
- viability, T/C [29]: 56.3%
- viability, T/C [30]: 50.6%
- viability, T/C [31]: 96.2%
- viability, T/C [32]: 81.4%
- viability, T/C [33]: 80.1%
- viability, T/C [34]: 68.2%
- viability, T/C [35]: 63.9%
- viability, T/C [36]: 48.8%
